Tests used:
WT-PARP11 = molecular target: T1, WT-PARP11 (Homo sapiens, UniProt Q9NR21); assay: Lysate labeling, HEK 293T cells expressing WT-PARP11; details: HEK 293T lysate
T1 sequence (Q9NR21 1-331 isoform Q9NR21-1): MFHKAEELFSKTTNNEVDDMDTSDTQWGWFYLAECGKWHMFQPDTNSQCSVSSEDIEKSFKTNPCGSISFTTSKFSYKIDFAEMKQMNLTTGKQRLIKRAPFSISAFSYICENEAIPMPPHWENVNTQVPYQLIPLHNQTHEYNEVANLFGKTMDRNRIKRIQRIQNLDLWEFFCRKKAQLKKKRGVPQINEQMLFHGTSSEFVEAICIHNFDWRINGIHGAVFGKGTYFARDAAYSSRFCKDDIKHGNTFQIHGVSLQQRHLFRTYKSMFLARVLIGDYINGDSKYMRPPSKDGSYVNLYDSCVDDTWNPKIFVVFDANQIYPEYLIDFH

WT-PARP15cat = molecular target: T2, WT-PARP15cat (Homo sapiens, UniProt Q460N3); assay: In vitro SRPK2 MARylation with WT-PARP15cat; type: biochemical
T2 sequence (Q460N3 482-678 limits assumed): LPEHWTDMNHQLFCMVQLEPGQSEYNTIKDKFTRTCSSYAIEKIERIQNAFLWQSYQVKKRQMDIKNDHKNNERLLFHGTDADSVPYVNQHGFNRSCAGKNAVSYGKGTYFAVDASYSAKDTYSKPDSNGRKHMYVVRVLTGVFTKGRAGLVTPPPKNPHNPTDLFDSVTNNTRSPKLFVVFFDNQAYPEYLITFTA

GFP-WT-PARP10 = molecular target: T3, GFP-WT-PARP10 (Homo sapiens, UniProt Q53GL7); assay: Lysate labeling, HEK 293T cells expressing WT-PARP10; details: HEK 293T lysate, WT-PARP10, 100 μM, click conjugation with biotin-azide
T3 sequence (Q53GL7 1-1025): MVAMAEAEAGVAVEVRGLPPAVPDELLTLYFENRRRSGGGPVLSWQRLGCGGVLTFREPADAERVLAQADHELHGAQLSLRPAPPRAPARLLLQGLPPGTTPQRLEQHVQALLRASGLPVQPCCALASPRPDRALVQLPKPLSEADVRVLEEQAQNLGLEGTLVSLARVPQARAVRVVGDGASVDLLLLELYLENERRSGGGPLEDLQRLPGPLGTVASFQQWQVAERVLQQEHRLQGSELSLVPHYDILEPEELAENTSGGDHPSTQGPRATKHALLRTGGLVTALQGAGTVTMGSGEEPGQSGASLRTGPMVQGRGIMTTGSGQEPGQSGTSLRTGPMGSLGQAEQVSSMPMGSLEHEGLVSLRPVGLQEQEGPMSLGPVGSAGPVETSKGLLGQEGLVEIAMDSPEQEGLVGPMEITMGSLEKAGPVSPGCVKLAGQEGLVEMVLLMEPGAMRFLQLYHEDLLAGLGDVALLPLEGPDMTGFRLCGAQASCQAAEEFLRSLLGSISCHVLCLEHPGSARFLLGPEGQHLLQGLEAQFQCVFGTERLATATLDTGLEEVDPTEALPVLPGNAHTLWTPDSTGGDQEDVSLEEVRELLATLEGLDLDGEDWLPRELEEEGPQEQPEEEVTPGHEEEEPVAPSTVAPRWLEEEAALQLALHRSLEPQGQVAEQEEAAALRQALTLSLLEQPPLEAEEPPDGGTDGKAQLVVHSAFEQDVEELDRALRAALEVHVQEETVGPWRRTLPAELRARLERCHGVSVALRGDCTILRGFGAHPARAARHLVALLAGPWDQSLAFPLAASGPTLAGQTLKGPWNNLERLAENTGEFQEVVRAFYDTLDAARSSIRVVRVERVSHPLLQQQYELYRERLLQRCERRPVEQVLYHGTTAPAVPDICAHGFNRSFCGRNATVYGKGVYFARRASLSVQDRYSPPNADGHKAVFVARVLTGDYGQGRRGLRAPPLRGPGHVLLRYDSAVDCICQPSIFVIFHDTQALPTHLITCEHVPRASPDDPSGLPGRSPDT

WT-PARP10cat = molecular target: T4, WT-PARP10cat (Homo sapiens, UniProt Q53GL7); assay: SRPK2 MARylation assay with WT-PARP10cat; details: 100 μM NAD+ analogue, 2 hours at 30° C., in-gel fluorescence
T4 sequence (Q53GL7 806-1025 limits assumed): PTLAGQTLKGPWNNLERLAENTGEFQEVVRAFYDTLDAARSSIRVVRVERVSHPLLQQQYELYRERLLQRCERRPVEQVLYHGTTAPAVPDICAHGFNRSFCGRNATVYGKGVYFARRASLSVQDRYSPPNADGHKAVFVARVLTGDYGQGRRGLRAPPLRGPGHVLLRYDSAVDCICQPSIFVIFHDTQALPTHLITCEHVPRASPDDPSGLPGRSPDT

L926A-PARP10cat = L926A-PARP10cat (Homo sapiens, UniProt Q53GL7, L926A); assay: SRPK2 MARylation assay with L926A-PARP10cat; details: relative to WT-PARP10cat; 100 μM NAD+ analogue, in-gel fluorescence
L926A-PARP10cat, sequence (Q53GL7 806-1025 L926A): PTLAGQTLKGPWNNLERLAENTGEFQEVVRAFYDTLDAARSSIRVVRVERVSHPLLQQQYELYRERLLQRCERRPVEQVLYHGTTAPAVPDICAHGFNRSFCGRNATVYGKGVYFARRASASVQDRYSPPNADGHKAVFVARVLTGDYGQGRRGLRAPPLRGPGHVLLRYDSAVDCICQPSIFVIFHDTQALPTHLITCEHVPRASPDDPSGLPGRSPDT

Row | Molecule | labeling of lysate proteins (streptavidin-HRP) (WT-PARP11) | use as substrate by WT-PARP15cat to MARylate SRPK2 (WT-PARP15cat) | labeling of lysate proteins (streptavidin-HRP) (GFP-WT-PARP10) | use as substrate to mediate SRPK2 MARylation by WT-PARP10cat (WT-PARP10cat) | use as substrate to mediate SRPK2 MARylation by L926A-PARP10cat (L926A-PARP10cat)
1 | 5-benzyl-6-a-NAD+ [5-Bn-6-a-NAD+] | Minimal background labeling | did not use | low-level of background labeling |  | 
2 | C#CCNc1ncnc2c1ncn2[C@@H]1O[C@H](COP(=O)(O)OP(=O)([O-])OC[C@H]2O[C@@H]([n+]3cccc(C(N)=O)c3)[C@H](O)[C@@H]2O)[C@@H](O)[C@H]1O [6-a-NAD+] |  |  |  | used as a substrate | to a lesser extent

Source: patent publication US11530235B2, “Compounds and methods used in assessing mono-PARP activity” (Oregon Health & Science University, priority 2015, dated 2022)
